{
  "source": "paper PMC7504721",
  "about": "“Targeting the Initiator Protease of the Classical Pathway of Complement Using Fragment-Based Drug Discovery” (Molecules, 2020)",
  "tested_on": "alternative pathway",
  "assay": "Alternative pathway-specific ELISA (LPS, 20% serum, C3b detection)",
  "format": "biochemical, human",
  "details": "single dose 500 µM, triplicate",
  "procedure": "Figure 5 Selectivity and mechanistic analysis of CMP-1611 and CMP-1696. (A) Chemical structure of CMP-1611. (B) Chemical structure of CMP-1696. (C) Dose-dependent inhibition by CMP-1611 and CMP-1696 in a classical pathway-specific ELISA. Data were fit with GraphPad Prism using non-linear regression with a log(inhibitor) vs. response model. […] (D) Complement pathway selectivity of CMP-1611 and CMP-1696. Compounds were assessed for their ability to inhibit activation of complement via the lectin and alternative pathways using single doses of 500 µM compound in triplicate. To ensure only lectin pathway activation, 2% (v/v) C1q-depleted serum (CompTech) was used and mannan was used as the activator. To match serum sources and amounts for this assay, the classical pathway assays were repeated here using serum from CompTech at 2% (v/v) final concentration. Alternative pathway activation assays were performed using 20% (v/v) serum (CompTech), alternative pathway buffers, and C3b detection (see Methods and Materials for details). […]\nTo carry out classical pathway ELISA-based inhibition assays, IgM was dissolved in coating buffer (100 mM Na2CO3/NaHCO3, pH 9.6) to a final concentration of 3 µg/mL and was dispensed into 96-well plates at 100 µL per well. […] The reaction was stopped with 50 µL of 0.16 M sulfuric acid, and the plate was read at 450 nm using an EnSight multimode plate reader (Perkin-Elmer). […]",
  "data": [
    {"compound": "CN(C)c1cc(N2CCCC(N)C2)ncn1", "note": "(stereo not shown) [CMP-1611]", "values": [
      {"measurement": "inhibition of alternative pathway activation", "result": "no effect"}
    ]}
  ]
}
